Measured values taken from ChEMBL document CHEMBL1201862, “PubChem BioAssay data set” (2004).
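Following 48 hours of exposure in 96-well plates, responses at five concentrations were used to interpolate endpoints linearly. GI50 marks 50% less growth.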 The source made the active and inactive calls. Cut-off read from the data, not from the text of the source: active = GI50 up to about 1.1 µM and inactive = higher.

Experiments:
Experiment in all cases: NCI-60 cell line screen, 48 h
OVCAR-4 = test system: OVCAR-4
UACC-62 = test system: UACC-62
SN12C = test system: SN12C
RXF 393 = test system: RXF 393
Hs-578T = test system: Hs-578T
COLO 205 = test system: COLO 205
CAKI-1 = test system: CAKI-1
SK-MEL-5 = test system: SK-MEL-5
SW-620 = test system: SW-620
DU-145 = test system: DU-145
HCC 2998 = test system: HCC 2998
OVCAR-3 = test system: OVCAR-3
RPMI-8226 = test system: RPMI-8226
SR = test system: SR
SNB-19 = test system: SNB-19
CCRF-CEM = test system: CCRF-CEM
M14 = test system: M14
UO-31 = test system: UO-31
HT-29 = test system: HT-29
SF-295 = test system: SF-295

Measured: GI50

CCOC1C=CC(=O)C(CO)O1 (stereo not given)
inactive: OVCAR-4 8.97 µM | UACC-62 12.4 µM | SN12C 13.3 µM | RXF 393 7.55 µM | Hs-578T 23.3 µM | COLO 205 13.4 µM | CAKI-1 13.4 µM | SK-MEL-5 21.1 µM | SW-620 9.23 µM | DU-145 15.8 µM | HCC 2998 17.4 µM | OVCAR-3 6.73 µM | RPMI-8226 2.14 µM | SR 1.99 µM | SNB-19 19.7 µM | CCRF-CEM 1.88 µM | M14 15 µM | UO-31 2.21 µM | HT-29 8.26 µM | SF-295 17.9 µM

COC(=O)[C@]12CC=C3O[C@@H]4OC5(CCCCC5)O[C@@H]4[C@H]3C1C(=O)C=CC2=O (stereo not given in full)
inactive: OVCAR-4 17.1 µM | UACC-62 16 µM | SN12C 18.4 µM | RXF 393 8.73 µM | Hs-578T 26.1 µM | COLO 205 15.7 µM | CAKI-1 15.9 µM | SK-MEL-5 18.6 µM | SW-620 15.9 µM | DU-145 21 µM | HCC 2998 17.2 µM | OVCAR-3 8.81 µM | RPMI-8226 7.64 µM | SR 22.3 µM | SNB-19 38.3 µM | CCRF-CEM 4.13 µM | M14 17.4 µM | UO-31 17 µM | HT-29 17.9 µM | SF-295 24.6 µM

O=C(O)c1cccc(OCCOc2cccc(C(=O)O)c2[N+](=O)[O-])c1[N+](=O)[O-]
inactive: OVCAR-4 > 100 µM | UACC-62 > 100 µM | SN12C > 100 µM | RXF 393 > 100 µM | Hs-578T > 100 µM | COLO 205 > 100 µM | CAKI-1 > 100 µM | SK-MEL-5 > 100 µM | SW-620 > 100 µM | DU-145 > 100 µM | HCC 2998 > 100 µM | OVCAR-3 > 100 µM | RPMI-8226 > 100 µM | SR > 100 µM | SNB-19 > 100 µM | CCRF-CEM > 100 µM | M14 > 100 µM | UO-31 > 100 µM | HT-29 > 100 µM | SF-295 > 100 µM

CC1(C)C2CCC3CC(CCC#N)CCC3C21C#N (stereo not given)
inactive: OVCAR-4 > 100 µM | UACC-62 > 100 µM | SN12C > 100 µM | RXF 393 > 100 µM | Hs-578T > 100 µM | COLO 205 > 100 µM | CAKI-1 > 100 µM | SK-MEL-5 > 100 µM | SW-620 > 100 µM | DU-145 > 100 µM | HCC 2998 > 100 µM | OVCAR-3 > 100 µM | RPMI-8226 > 100 µM | SR > 100 µM | SNB-19 > 100 µM | CCRF-CEM > 100 µM | M14 > 100 µM | UO-31 > 100 µM | HT-29 > 100 µM | SF-295 > 100 µM

CC1(C)C=C(/C=N/Nc2ccccc2)C(C#N)=C(O)C1(C#N)C#N
inactive: OVCAR-4 > 100 µM | UACC-62 > 100 µM | SN12C > 100 µM | RXF 393 > 100 µM | Hs-578T > 100 µM | COLO 205 74.1 µM | CAKI-1 > 100 µM | SK-MEL-5 > 100 µM | SW-620 > 100 µM | DU-145 > 100 µM | HCC 2998 > 100 µM | OVCAR-3 > 100 µM | RPMI-8226 52.5 µM | SR 31.3 µM | SNB-19 > 100 µM | CCRF-CEM 68.4 µM | M14 > 100 µM | UO-31 > 100 µM | HT-29 93.8 µM | SF-295 90.4 µM

Cc1c(C)c(S(=O)(=O)N(CCCN)OCCCN)c(C)c2c1OC(C)(C)CC2
inactive: OVCAR-4 8.17 µM | UACC-62 14.8 µM | SN12C 15.1 µM | RXF 393 9.04 µM | Hs-578T 14.8 µM | COLO 205 17.5 µM | CAKI-1 16.5 µM | SK-MEL-5 15.6 µM | SW-620 15.1 µM | DU-145 16 µM | HCC 2998 4.14 µM | OVCAR-3 15 µM | RPMI-8226 17.6 µM | SR 17.5 µM | SNB-19 11.8 µM | CCRF-CEM 10.2 µM | M14 14.3 µM | UO-31 17.5 µM | HT-29 15.1 µM | SF-295 16.3 µM

Oc1ccc(-c2nc(-c3cccnc3)c(-c3ccc(Cl)cc3)[nH]2)cc1
inactive: OVCAR-4 11.2 µM | UACC-62 12.9 µM | SN12C 15.8 µM | RXF 393 13.3 µM | Hs-578T 19.4 µM | COLO 205 10.3 µM | CAKI-1 17.9 µM | SK-MEL-5 12.1 µM | SW-620 14.6 µM | DU-145 14.3 µM | HCC 2998 18.8 µM | OVCAR-3 12.5 µM | RPMI-8226 3.47 µM | SR 5.43 µM | SNB-19 16.5 µM | CCRF-CEM 1.79 µM | M14 13.1 µM | UO-31 10.8 µM | HT-29 15.2 µM | SF-295 14 µM
